Assay results from PMC12635268, “Novel antimicrobial peptides and peptide-microbiome crosstalk in Appalachian salamander skin” (NPJ Biofilms and Microbiomes, 2025).
Values after ≈ are worked out from the molar mass of the structure shown. Ends that are not written are not given here. Peptide text beside a SMILES is read from it.

How the values were obtained:
[1] = system: A. baumannii ATCC 17978; experiment: microbe, parasite or virus in culture; settings: for Bacterial MIC: ATCC 17978, 20 h
Method in brief: (§1)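 Broth microdilution in cation-adjusted Mueller-Hinton broth, final inoculum 1 × 10⁵ CFU/mL, peptides 0.25 to 128 μg/mL in 0.02% TFA + 0.04% BSA. Duplicates incubated 20 h at 37 °C without agitation. MIC read visually per CLSI with image-analysis support.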

[2] = system: A. baumannii ATCC 19606; experiment: microbe, parasite or virus in culture; settings: for Bacterial MIC: ATCC 19606, 20 h
Method in brief: as §1

[3] = system: E. cloacae ATCC 13047; experiment: microbe, parasite or virus in culture; settings: for Bacterial MIC: ATCC 13047, 20 h
Method in brief: as §1

[4] = system: E. cloacae ATCC 35549; experiment: microbe, parasite or virus in culture; settings: for Bacterial MIC: ATCC 35549, 20 h
Method in brief: as §1

[5] = system: E. coli ATCC 35218; experiment: microbe, parasite or virus in culture
Method in brief: as §1

[6] = system: E. coli ATCC 43888; experiment: microbe, parasite or virus in culture; settings: ATCC 43888, 20 h
Method in brief: as §1

[7] = system: E. faecium ATCC 19434; experiment: microbe, parasite or virus in culture; settings: for Bacterial MIC: ATCC 19434, 20 h
Method in brief: as §1

[8] = system: E. faecium ATCC 49224; experiment: microbe, parasite or virus in culture; settings: for Bacterial MIC: ATCC 49224, 20 h
Method in brief: as §1

[9] = system: K. pneumoniae ATCC 13883; experiment: microbe, parasite or virus in culture; settings: for Bacterial MIC: ATCC 13883, 20 h
Method in brief: as §1

[10] = system: K. pneumoniae ATCC 700603; experiment: microbe, parasite or virus in culture; settings: K. pneumoniae 700603; for Bacterial MIC: Week 2 (12/14/2023)
Method in brief: as §1

[11] = system: P. aeruginosa ATCC 27853; experiment: microbe, parasite or virus in culture; settings: for Bacterial MIC: ATCC 27853, 20 h
Method in brief: as §1

[12] = system: P. aeruginosa MRSN 5519; experiment: microbe, parasite or virus in culture; settings: for Bacterial MIC: MRSN 5519, 20 h
Method in brief: as §1

[13] = system: S. aureus ATCC 25923; experiment: microbe, parasite or virus in culture; settings: for Bacterial MIC: ATCC 25923, 20 h
Method in brief: as §1

[14] = system: S. aureus ATCC 43300; experiment: microbe, parasite or virus in culture; settings: S. aureus 43300; for Bacterial MIC: Week 2 (12/14/2023)
Method in brief: as §1

[15] = system: P. aeruginosa PA01; experiment: microbe, parasite or virus in culture; type: cell-based; settings: for Bacterial MIC: P. aeruginosa 15692 (PAO1), Week 2 (12/14/2023)
Method: Antimicrobial susceptibility testing of the 20 synthesized peptides against 17 bacterial strains of clinical relevance in the ESKAPEE panel was conducted using minimum inhibitory concentration (MIC) assays following the broth microdilution method outlined by Parker et al.[91]. The ESKAPEE panel is comprised of fourteen American Type Culture Collection (ATCC) strains and three Multidrug Resistant Organism Repository and Surveillance Network (MRSN) bacterial strains. These strains represent at least one drug-susceptible strain and one drug-resistant strain for each bacterium to assess drug efficacy across various resistance mechanisms. This panel is comprised of the following bacterial species and strains: E. faecium (ATCC 19434, ATCC 49224), S. aureus (ATCC 25923, ATCC 43300), K. pneumoniae (ATCC 700603, ATCC 13883, MRSN 1320), A. baumannii (ATCC 17978, ATCC 19606, MRSN 959), P. aeruginosa (ATCC 15692, ATCC 27853, MRSN 5519), E. cloacae (ATCC 13047, ATCC 35549), and E. coli (ATCC 35218, ATCC 43888). Bacteria were grown in cation-adjusted Mueller-Hinton broth (CAMHB) to achieve a final inoculum of 1 × 10⁵ CFU/mL. CAMHB is selected for its batch-to-batch reproducibility, low levels of antimicrobial inhibitors, and ability to support the growth of most bacterial pathogens.
Briefly, lyophilized peptides were dissolved in 0.2% TFA + 0.4% BSA in water to 2.56 mg/mL, ultrasonicated for 20 min, diluted 10-fold into CAMHB, and then serially diluted 2-fold in 0.02% TFA + 0.04% BSA in CAMHB and assayed at a concentration of 0.25 to 128 μg/mL. Assays were set up using the Tecan Freedom EVO liquid handling robot and software (Tecan, Switzerland) with 50 μL of bacterial inoculum and 50 μL of peptide transferred into round-bottom 96-well microtiter plates. Each plate assay was performed in duplicate and incubated at 37 °C for 20 h without agitation. Bacterial growth was assessed using the BIOMIC V3 Image Analysis system (Giles Scientific, USA) and the MIC values were determined visually according to the Clinical and Laboratory Standards Institute (CLSI) guidelines.

[16] = system: P. aeruginosa PA01 (Si); experiment: microbe, parasite or virus in culture; type: cell-based; settings: Si
Excerpt: Supplement 41522_2025_837_MOESM13_ESM.xlsx, sheet "Table_S13_ESKAPEE-MIC" | column: Bacterial MIC (µg/mL)

[17] = system: K. pneumoniae 4640; settings: for Bacterial MIC: 4640, 20 h
[18] = system: A. baumannii 5075; settings: for Bacterial MIC: Week 2 (12/14/2023)
[19] = set-up: method as in Biomatik (vendor); settings: 1.0 mg peptide in 1.0 ml solvent; peptides synthesized by Biomatik; ref Biomatik (vendor); cited from earlier work
[20] = CAMHB, 1 × 10⁵ CFU/mL, 0.25 to 128 μg/mL, 37 °C 20 h, duplicate, read visually (CLSI)
[21] = E. coli 35218, Week 2 (12/14/2023)

Row | Compound | Bacterial MIC [6] | Bacterial MIC [16] | Suggest solvent (solubility) [19] | Bacterial MIC [1] | Bacterial MIC [2] | Bacterial MIC [3] | Bacterial MIC [4] | Bacterial MIC [5, 21] | Bacterial MIC [7] | Bacterial MIC [8] | Bacterial MIC [9] | Bacterial MIC [10] | Bacterial MIC [11] | Bacterial MIC [12] | Bacterial MIC [13] | Bacterial MIC [14] | Bacterial MIC [15] | Bacterial MIC [17] | Bacterial MIC [18] | further results
1 | CC[C@H](C)[C@H](NC(=O)[C@H](CO)NC(=O)[C@H](CO)NC(=O)[C@H](Cc1ccccc1)NC(=O)[C@H](CS)NC(=O)CNC(=O)CNC(=O)[C@H](CCCNC(=N)N)NC(=O)[C@H](CCCNC(=N)N)NC(=O)[C@H](Cc1ccc(O)cc1)NC(=O)[C@H](CS)NC(=O)[C@H](CC(N)=O)NC(=O)[C@H](Cc1c[nH]c2ccccc12)NC(=O)[C@@H]1CCCN1C(=O)[C@H](CCCNC(=N)N)NC(=O)[C@H](C)NC(=O)[C@H](CCCNC(=N)N)NC(=O)[C@H](CCCNC(=N)N)NC(=O)[C@@H](NC(=O)[C@H](CCCNC(=N)N)NC(=O)[C@@H](NC(=O)[C@H](CCCNC(=N)N)NC(=O)[C@H](CCCCN)NC(=O)[C@@H](N)CC(C)C)[C@@H](C)O)C(C)C)C(=O)NCC(=O)N[C@@H](CO)C(=O)N[C@@H](CC(C)C)C(=O)N[C@H](C(=O)N1CCC[C@H]1C(=O)N[C@H](C(=O)O)C(C)C)[C@@H](C)O [Pcin-CATH3] (H-LKRTRVRRARPWNCYRRGGCFSSIGSLTPV-OH; N-terminus and C-terminus assumed) | 64 µg/mL | 32 µg/mL | 1.0mg peptide soluble in 1.0ml H2O | – | – | – | – | – | – | – | – | – | – | – | – | – | – | – | – | MIC ([1]; A. baumannii 17978, CAMHB, 1 × 10⁵ CFU/mL, 0.25 to 128 μg/mL, 37 °C 20 h, duplicate, read visually (CLSI)): 64 µg/mL (≈ 18.3 µM); MIC ([2]; A. baumannii 19606, CAMHB, 1 × 10⁵ CFU/mL, 0.25 to 128 μg/mL, 37 °C 20 h, duplicate, read visually (CLSI)): 64 µg/mL (≈ 18.3 µM); MIC ([3]; E. cloacae 13047, CAMHB, 1 × 10⁵ CFU/mL, 0.25 to 128 μg/mL, 37 °C 20 h, duplicate, read visually (CLSI)): >128 µg/mL; MIC ([4]; E. cloacae 35549, CAMHB, 1 × 10⁵ CFU/mL, 0.25 to 128 μg/mL, 37 °C 20 h, duplicate, read visually (CLSI)): >128 µg/mL; Bacterial MIC ([5]; ATCC 35218, 20 h): 128 µg/mL; MIC ([5]; ATCC 35218, 20 h): >128 µg/mL; MIC ([7]; E. faecium 19434, CAMHB, 1 × 10⁵ CFU/mL, 0.25 to 128 μg/mL, 37 °C 20 h, duplicate, read visually (CLSI)): >128 µg/mL; MIC ([8]; E. faecium 49224, CAMHB, 1 × 10⁵ CFU/mL, 0.25 to 128 μg/mL, 37 °C 20 h, duplicate, read visually (CLSI)): >128 µg/mL; MIC ([9]; K. pneumoniae 13883, CAMHB, 1 × 10⁵ CFU/mL, 0.25 to 128 μg/mL, 37 °C 20 h, duplicate, read visually (CLSI)): >128 µg/mL; MIC [10, 20]: >128 µg/mL; MIC ([11]; P. aeruginosa 27853, CAMHB, 1 × 10⁵ CFU/mL, 0.25 to 128 μg/mL, 37 °C 20 h, duplicate, read visually (CLSI)): >128 µg/mL; MIC ([12]; P. aeruginosa 5519, CAMHB, 1 × 10⁵ CFU/mL, 0.25 to 128 μg/mL, 37 °C 20 h, duplicate, read visually (CLSI)): >128 µg/mL; MIC ([13]; S. aureus 25923, CAMHB, 1 × 10⁵ CFU/mL, 0.25 to 128 μg/mL, 37 °C 20 h, duplicate, read visually (CLSI)): >128 µg/mL; MIC [14, 20]: >128 µg/mL; MIC ([15]; 20 h): 32 µg/mL (≈ 9.16 µM); MIC ([17]; K. pneumoniae 4640, CAMHB, 1 × 10⁵ CFU/mL, 0.25 to 128 μg/mL, 37 °C 20 h, duplicate, read visually (CLSI)): >128 µg/mL; MIC [18, 20]: 16 µg/mL (≈ 4.58 µM)
2 | KRAGYARMIR [PrAd-Eb18] | >128.000 µg/mL | >128.000 µg/mL | 1.0mg peptide soluble in 1.0ml H2O | >128.000 µg/mL | >128.000 µg/mL | >128.000 µg/mL | >128.000 µg/mL | >128.000 µg/mL | >128.000 µg/mL | >128.000 µg/mL | >128.000 µg/mL | >128.000 µg/mL | >128.000 µg/mL | >128.000 µg/mL | >128.000 µg/mL | >128.000 µg/mL | >128.000 µg/mL | >128.000 µg/mL | >128.000 µg/mL | –
3 | RVPPGFSPFR [PrAd-Eb28] | >128.000 µg/mL | >128.000 µg/mL | 1.0mg peptide soluble in 1.0ml H2O | >128.000 µg/mL | >128.000 µg/mL | >128.000 µg/mL | >128.000 µg/mL | >128.000 µg/mL | >128.000 µg/mL | >128.000 µg/mL | >128.000 µg/mL | >128.000 µg/mL | >128.000 µg/mL | >128.000 µg/mL | >128.000 µg/mL | >128.000 µg/mL | >128.000 µg/mL | >128.000 µg/mL | >128.000 µg/mL | –
4 | DVGTQGLSPLR [PrAd-Eb22] | >128.000 µg/mL | >128.000 µg/mL | 1.0mg peptide soluble in 1.0ml H2O | >128.000 µg/mL | >128.000 µg/mL | >128.000 µg/mL | >128.000 µg/mL | >128.000 µg/mL | >128.000 µg/mL | >128.000 µg/mL | >128.000 µg/mL | >128.000 µg/mL | >128.000 µg/mL | >128.000 µg/mL | >128.000 µg/mL | >128.000 µg/mL | >128.000 µg/mL | >128.000 µg/mL | >128.000 µg/mL | –
5 | KEGCKEIKGP [TrPr-Eb20] | >128.000 µg/mL | >128.000 µg/mL | 1.0mg peptide soluble in 1.0ml H2O | >128.000 µg/mL | >128.000 µg/mL | >128.000 µg/mL | >128.000 µg/mL | >128.000 µg/mL | >128.000 µg/mL | >128.000 µg/mL | >128.000 µg/mL | >128.000 µg/mL | >128.000 µg/mL | >128.000 µg/mL | >128.000 µg/mL | >128.000 µg/mL | >128.000 µg/mL | >128.000 µg/mL | >128.000 µg/mL | –
